Values of other authors in US8168440B2, “Polymeric sulfated surfactants for capillary electrophoresis (CE) and CE-mass spectrometry (CE-MS)” (Georgia State University, priority 2006, dated 2012).

Legend:
[1] = in vivo

| Compound | pKa | Part of the dosage taken excreted in the urine [1] | Serum half-life [1] |
| --- | --- | --- | --- |
| CC(Oc1ccccc1Cl)C(=O)O (racemic) [(±)-2-PPA, 2-(2-chlorophenoxy)propionic acid] | 3.11±0.1 | – | – |
| CN[C@@H](C)[C@@H](O)c1ccccc1 (racemic) [(±)-pseudoephedrine, pseudoephedrine] | – | about one-half | 5 to 8 h |
